Data as given in patent publication US7880007B2, “Bicyclic substituted phenyl piperidine modulators of muscarinic receptors” (Vertex Pharmaceuticals Incorporated, priority 2004, dated 2011).

Experiments:
Type in all cases: cell-based
[1] = biological target: T1, M4 muscarinic receptor (Homo sapiens, UniProt P08173); assay: Functional mobilization of intracellular calcium (FLIPR), M4-CHO cells; details: for Emax: 100% efficacy = maximum response obtained with the Carbachol control; for M4 Activity: M4-CHO cells, calcium mobilization (FLIPR)
T1 construct: expressed in transfected cells; host or cells: CHO (M4-CHO)
T1 sequence (P08173 1-479): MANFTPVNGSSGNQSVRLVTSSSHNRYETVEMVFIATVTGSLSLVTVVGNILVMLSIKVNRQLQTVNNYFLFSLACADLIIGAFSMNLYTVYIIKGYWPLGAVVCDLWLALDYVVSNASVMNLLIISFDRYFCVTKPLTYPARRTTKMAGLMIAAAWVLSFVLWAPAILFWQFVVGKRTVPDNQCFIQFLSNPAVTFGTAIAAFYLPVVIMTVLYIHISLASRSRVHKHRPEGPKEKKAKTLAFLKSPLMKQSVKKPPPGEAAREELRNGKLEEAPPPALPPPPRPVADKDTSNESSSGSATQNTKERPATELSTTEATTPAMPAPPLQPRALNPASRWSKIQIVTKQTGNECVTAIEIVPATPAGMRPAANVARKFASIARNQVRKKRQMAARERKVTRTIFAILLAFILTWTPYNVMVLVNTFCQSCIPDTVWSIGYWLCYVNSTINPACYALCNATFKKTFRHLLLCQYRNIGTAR
Method in brief: (§1)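 Calcium mobilisation read by FLIPR over 60 s (ex 488/em 540 nm) in recombinant muscarinic CHO lines loaded with calcium dye plus 1 mM probenecid. Compounds tested as agonists alone, or as inhibitors against EC80 carbachol after 15 min pre-incubation or co-addition; 0.5% DMSO; efficacy scaled to carbachol maximal response.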

[2] = biological target: T2, M3 muscarinic receptor (Homo sapiens, UniProt P20309); assay: Functional mobilization of intracellular calcium (FLIPR), M3-CHO cells; details: for Emax: 100% efficacy = maximum response obtained with the Carbachol control; for M3 Activity: M3-CHO cells, calcium mobilization (FLIPR)
T2 construct: expressed in transfected cells; host or cells: CHO (M3-CHO)
T2 sequence (P20309 whole entry): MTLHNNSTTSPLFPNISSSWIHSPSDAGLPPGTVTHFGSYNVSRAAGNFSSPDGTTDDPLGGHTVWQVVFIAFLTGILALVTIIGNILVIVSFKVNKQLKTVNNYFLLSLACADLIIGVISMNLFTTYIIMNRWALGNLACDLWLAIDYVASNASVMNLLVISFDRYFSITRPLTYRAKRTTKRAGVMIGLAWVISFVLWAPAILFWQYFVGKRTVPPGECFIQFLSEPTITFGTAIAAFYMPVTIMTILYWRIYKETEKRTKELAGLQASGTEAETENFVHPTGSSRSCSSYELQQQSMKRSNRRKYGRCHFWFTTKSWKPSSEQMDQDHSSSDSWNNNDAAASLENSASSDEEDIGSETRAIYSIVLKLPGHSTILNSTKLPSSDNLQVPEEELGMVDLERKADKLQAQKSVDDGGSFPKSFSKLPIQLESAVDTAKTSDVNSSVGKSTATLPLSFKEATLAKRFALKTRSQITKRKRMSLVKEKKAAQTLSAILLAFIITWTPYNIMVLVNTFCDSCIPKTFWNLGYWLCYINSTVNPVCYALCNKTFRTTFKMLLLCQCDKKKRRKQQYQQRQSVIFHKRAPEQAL
Method in brief: as §1

[3] = biological target: T3, M1 muscarinic receptor (Homo sapiens, UniProt P11229); assay: Functional mobilization of intracellular calcium (FLIPR), M1-CHO cells; details: for Emax: 100% efficacy = maximum response obtained with the Carbachol control; for M1 Activity: M1-CHO cells, calcium mobilization (FLIPR)
T3 construct: expressed in transfected cells; host or cells: CHO (M1-CHO)
T3 sequence (P11229 1-460): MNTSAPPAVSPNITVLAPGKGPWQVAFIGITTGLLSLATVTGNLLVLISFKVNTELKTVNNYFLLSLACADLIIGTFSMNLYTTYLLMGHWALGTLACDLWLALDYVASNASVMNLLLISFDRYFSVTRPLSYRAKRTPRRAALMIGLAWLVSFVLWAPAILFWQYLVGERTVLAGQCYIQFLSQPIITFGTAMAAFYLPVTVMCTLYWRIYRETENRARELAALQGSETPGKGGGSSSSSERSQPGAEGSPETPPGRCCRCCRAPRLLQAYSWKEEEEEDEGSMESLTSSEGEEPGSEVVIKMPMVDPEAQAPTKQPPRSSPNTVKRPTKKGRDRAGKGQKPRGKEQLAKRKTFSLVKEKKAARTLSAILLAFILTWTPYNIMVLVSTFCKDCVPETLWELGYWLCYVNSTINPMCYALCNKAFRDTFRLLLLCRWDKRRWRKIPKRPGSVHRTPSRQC
Method in brief: as §1

[4] = biological target: T4, M2 muscarinic receptor (Homo sapiens, UniProt P08172); assay: Functional mobilization of intracellular calcium (FLIPR), M2-CHO cells; details: for Emax: 100% efficacy = maximum response obtained with the Carbachol control; for M2 Activity: M2-CHO cells, calcium mobilization (FLIPR)
T4 construct: expressed in transfected cells; host or cells: CHO (M2-CHO)
T4 sequence (P08172 1-466): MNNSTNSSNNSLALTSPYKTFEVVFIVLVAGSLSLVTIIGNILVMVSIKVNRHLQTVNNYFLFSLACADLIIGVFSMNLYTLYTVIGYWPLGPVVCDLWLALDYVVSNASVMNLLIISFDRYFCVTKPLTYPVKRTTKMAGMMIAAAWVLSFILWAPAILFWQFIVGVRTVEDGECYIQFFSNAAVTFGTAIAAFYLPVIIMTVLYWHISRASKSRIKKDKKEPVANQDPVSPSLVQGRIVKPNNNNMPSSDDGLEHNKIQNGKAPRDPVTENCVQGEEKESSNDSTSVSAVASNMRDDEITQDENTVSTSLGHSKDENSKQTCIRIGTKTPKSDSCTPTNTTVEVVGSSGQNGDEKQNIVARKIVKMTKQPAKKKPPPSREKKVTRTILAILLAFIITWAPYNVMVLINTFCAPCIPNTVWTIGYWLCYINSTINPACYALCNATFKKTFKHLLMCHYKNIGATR
Method in brief: as §1

Compound	Emax [1] [%]	M4 Activity [1]	Emax [2] [%]	M3 Activity [2]	Emax [3] [%]	M1 Activity [3]	Emax [4] [%]	M2 Activity [4]
CCOC(=O)N1CCC(CN2CCC(c3ccccc3OC(F)(F)F)CC2)CC1 [Compound 271]	25 to 100	+++ (activity was measured to be less than 1.0 μM)	< 25	+ (activity was measured to be greater than 5.0 μM)	25 to 100	+++ (activity was measured to be less than 1.0 μM)	25 to 100	++ (activity was measured to be from 1.0 μM to 5.0 μM)
CCOC(=O)N1CCC(CN2CCC(c3cc(-c4ccc(C(C)(C)C#N)cc4)ccc3OC)CC2)CC1 [Compound 272]	25 to 100	+++ (activity was measured to be less than 1.0 μM)	< 25	+ (activity was measured to be greater than 5.0 μM)	25 to 100	+++ (activity was measured to be less than 1.0 μM)	< 25	+ (activity was measured to be greater than 5.0 μM)
COc1ccc(Cl)cc1C1CCN(C2CCC(=O)CC2)CC1 [Compound 273, 4-(4-(5-chloro-2-methoxyphenyl)piperidin-1-yl)cyclohexanone]	25 to 100	+++ (activity was measured to be less than 1.0 μM)	< 25	+ (activity was measured to be greater than 5.0 μM)	25 to 100	+ (activity was measured to be greater than 5.0 μM)	25 to 100	++ (activity was measured to be from 1.0 μM to 5.0 μM)
Fc1cccc(-c2ccccc2C2CCN([C@H]3C[C@H]4CC[C@H]3C4)CC2)c1 [Compound 274]	25 to 100	++ (activity was measured to be from 1.0 μM to 5.0 μM)	< 25	+ (activity was measured to be greater than 5.0 μM)	< 25	+ (activity was measured to be greater than 5.0 μM)	< 25	+ (activity was measured to be greater than 5.0 μM)
COc1ccc(-c2ccc(S(C)(=O)=O)cc2)cc1C1CCN(C2CCCC2)CC1 [Compound 275]	25 to 100	++ (activity was measured to be from 1.0 μM to 5.0 μM)	< 25	+ (activity was measured to be greater than 5.0 μM)	25 to 100	+ (activity was measured to be greater than 5.0 μM)	25 to 100	+ (activity was measured to be greater than 5.0 μM)
Fc1cccc(C2CCN(C3C[C@H]4CC[C@H]3C4)CC2)c1F (stereo partly shown) [Compound 276]	25 to 100	++ (activity was measured to be from 1.0 μM to 5.0 μM)	< 25	+ (activity was measured to be greater than 5.0 μM)	25 to 100	+ (activity was measured to be greater than 5.0 μM)	< 25	+ (activity was measured to be greater than 5.0 μM)
COc1ccc(-c2cccc(C)c2)cc1C1CCN([C@H]2C[C@H]3CC[C@H]2C3)CC1 [Compound 277]	< 25	+ (activity was measured to be greater than 5.0 μM)	< 25	+ (activity was measured to be greater than 5.0 μM)	< 25	+ (activity was measured to be greater than 5.0 μM)	< 25	+ (activity was measured to be greater than 5.0 μM)
COc1ccc(Cl)cc1C1CCN(CC2CC3CCC2CC3)CC1 (stereo not shown) [Compound 280]	25 to 100	++ (activity was measured to be from 1.0 μM to 5.0 μM)	< 25	+ (activity was measured to be greater than 5.0 μM)	< 25	+ (activity was measured to be greater than 5.0 μM)	< 25	+ (activity was measured to be greater than 5.0 μM)
Cc1ccccc1C1CCN(C2CCOCC2)CC1 [Compound 281]	25 to 100	+++ (activity was measured to be less than 1.0 μM)	< 25	+ (activity was measured to be greater than 5.0 μM)	25 to 100	+ (activity was measured to be greater than 5.0 μM)	< 25	+ (activity was measured to be greater than 5.0 μM)
CCC(=O)c1ccc(OC)c(C2CCN([C@H]3C[C@H]4CC[C@H]3C4)CC2)c1 [Compound 282]	25 to 100	++ (activity was measured to be from 1.0 μM to 5.0 μM)	< 25	+ (activity was measured to be greater than 5.0 μM)	< 25	+ (activity was measured to be greater than 5.0 μM)	< 25	+ (activity was measured to be greater than 5.0 μM)
Cc1cccc(-c2ccccc2C2CCN([C@H]3C[C@H]4CC[C@H]3C4)CC2)c1 [Compound 283]	25 to 100	++ (activity was measured to be from 1.0 μM to 5.0 μM)	< 25	+ (activity was measured to be greater than 5.0 μM)	< 25	+ (activity was measured to be greater than 5.0 μM)	< 25	+ (activity was measured to be greater than 5.0 μM)
COc1ccc(-c2ccc3c(c2)OCO3)cc1C1CCN(C2C[C@@H]3CC[C@@H]2C3)CC1 (stereo partly shown) [Compound 284]	25 to 100	+ (activity was measured to be greater than 5.0 μM)	25 to 100	+ (activity was measured to be greater than 5.0 μM)	25 to 100	+ (activity was measured to be greater than 5.0 μM)	< 25	+ (activity was measured to be greater than 5.0 μM)
CNC(=O)c1ccc(-c2ccc(OC)c(C3CCN(C4CCOCC4)CC3)c2)cc1 [Compound 285]	< 25	+ (activity was measured to be greater than 5.0 μM)	< 25	+ (activity was measured to be greater than 5.0 μM)	< 25	+ (activity was measured to be greater than 5.0 μM)	< 25	+ (activity was measured to be greater than 5.0 μM)
COc1ccc(C#CC2(O)CCCC2)cc1C1CCN([C@H]2C[C@H]3CC[C@H]2C3)CC1 [Compound 287]	25 to 100	+++ (activity was measured to be less than 1.0 μM)	< 25	+ (activity was measured to be greater than 5.0 μM)	< 25	+ (activity was measured to be greater than 5.0 μM)	< 25	+ (activity was measured to be greater than 5.0 μM)
